Patent publication US20250136578A1 (Kolm Therapeutics Inc., priority 2023, published 2025)

What was measured:
VCaP cells = assay: VCaP growth inhibition assay (CTG); assay type: cell-based; settings: Homo sapiens, 216 h, 30 pM R1881, 9 days
Procedure, shortened: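 VCaP cells in phenol red-free DMEM with 5% charcoal-stripped serum were stimulated with 30 pM R1881 (final) and treated with compound from 100 nM to 10 fM final (1:5 dilutions) for 9 days at 37 °C. Viability was read by CellTiter-Glo luminescence, and IC50 came from 4-parameter logistic fits.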

AR / CBP ternary complex = AR / CBP ternary complex (Homo sapiens, UniProt P10275+Q92793); assay: Ternary complex formation assay (sandwich ELISA, AR capture, CBP antibody detection) in VCaP cell lysates; assay type: cell-based; settings: treated 1.5 hours, rabbit CBP or p300 antibody detection, average, read-out: Average Ternary Complex
Chain of AR / CBP ternary complex (P10275 whole entry): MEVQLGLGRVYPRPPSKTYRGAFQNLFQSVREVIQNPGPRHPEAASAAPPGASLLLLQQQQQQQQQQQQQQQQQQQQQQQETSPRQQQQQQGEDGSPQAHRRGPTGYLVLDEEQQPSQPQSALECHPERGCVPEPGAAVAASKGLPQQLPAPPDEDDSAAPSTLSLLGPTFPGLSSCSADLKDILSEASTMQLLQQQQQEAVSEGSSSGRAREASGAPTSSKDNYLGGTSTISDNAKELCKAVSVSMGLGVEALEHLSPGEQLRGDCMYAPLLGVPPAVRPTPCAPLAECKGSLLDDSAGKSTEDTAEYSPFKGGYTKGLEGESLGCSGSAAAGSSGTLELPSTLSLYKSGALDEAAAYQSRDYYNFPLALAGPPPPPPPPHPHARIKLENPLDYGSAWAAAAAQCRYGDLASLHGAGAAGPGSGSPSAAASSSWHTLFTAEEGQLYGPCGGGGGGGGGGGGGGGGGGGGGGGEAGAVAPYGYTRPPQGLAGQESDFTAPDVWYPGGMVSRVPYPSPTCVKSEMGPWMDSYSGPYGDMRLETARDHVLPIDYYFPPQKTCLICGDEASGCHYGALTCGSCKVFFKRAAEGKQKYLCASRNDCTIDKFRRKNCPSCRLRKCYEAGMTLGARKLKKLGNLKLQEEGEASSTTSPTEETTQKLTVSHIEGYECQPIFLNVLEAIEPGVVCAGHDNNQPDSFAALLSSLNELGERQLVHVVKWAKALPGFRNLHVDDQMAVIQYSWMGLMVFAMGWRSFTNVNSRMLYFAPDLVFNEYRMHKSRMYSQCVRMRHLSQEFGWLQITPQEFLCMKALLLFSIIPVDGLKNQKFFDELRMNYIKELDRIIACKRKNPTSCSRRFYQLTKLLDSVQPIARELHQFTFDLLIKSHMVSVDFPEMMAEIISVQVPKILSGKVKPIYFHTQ
Chain of AR / CBP ternary complex (Q92793 2-2442): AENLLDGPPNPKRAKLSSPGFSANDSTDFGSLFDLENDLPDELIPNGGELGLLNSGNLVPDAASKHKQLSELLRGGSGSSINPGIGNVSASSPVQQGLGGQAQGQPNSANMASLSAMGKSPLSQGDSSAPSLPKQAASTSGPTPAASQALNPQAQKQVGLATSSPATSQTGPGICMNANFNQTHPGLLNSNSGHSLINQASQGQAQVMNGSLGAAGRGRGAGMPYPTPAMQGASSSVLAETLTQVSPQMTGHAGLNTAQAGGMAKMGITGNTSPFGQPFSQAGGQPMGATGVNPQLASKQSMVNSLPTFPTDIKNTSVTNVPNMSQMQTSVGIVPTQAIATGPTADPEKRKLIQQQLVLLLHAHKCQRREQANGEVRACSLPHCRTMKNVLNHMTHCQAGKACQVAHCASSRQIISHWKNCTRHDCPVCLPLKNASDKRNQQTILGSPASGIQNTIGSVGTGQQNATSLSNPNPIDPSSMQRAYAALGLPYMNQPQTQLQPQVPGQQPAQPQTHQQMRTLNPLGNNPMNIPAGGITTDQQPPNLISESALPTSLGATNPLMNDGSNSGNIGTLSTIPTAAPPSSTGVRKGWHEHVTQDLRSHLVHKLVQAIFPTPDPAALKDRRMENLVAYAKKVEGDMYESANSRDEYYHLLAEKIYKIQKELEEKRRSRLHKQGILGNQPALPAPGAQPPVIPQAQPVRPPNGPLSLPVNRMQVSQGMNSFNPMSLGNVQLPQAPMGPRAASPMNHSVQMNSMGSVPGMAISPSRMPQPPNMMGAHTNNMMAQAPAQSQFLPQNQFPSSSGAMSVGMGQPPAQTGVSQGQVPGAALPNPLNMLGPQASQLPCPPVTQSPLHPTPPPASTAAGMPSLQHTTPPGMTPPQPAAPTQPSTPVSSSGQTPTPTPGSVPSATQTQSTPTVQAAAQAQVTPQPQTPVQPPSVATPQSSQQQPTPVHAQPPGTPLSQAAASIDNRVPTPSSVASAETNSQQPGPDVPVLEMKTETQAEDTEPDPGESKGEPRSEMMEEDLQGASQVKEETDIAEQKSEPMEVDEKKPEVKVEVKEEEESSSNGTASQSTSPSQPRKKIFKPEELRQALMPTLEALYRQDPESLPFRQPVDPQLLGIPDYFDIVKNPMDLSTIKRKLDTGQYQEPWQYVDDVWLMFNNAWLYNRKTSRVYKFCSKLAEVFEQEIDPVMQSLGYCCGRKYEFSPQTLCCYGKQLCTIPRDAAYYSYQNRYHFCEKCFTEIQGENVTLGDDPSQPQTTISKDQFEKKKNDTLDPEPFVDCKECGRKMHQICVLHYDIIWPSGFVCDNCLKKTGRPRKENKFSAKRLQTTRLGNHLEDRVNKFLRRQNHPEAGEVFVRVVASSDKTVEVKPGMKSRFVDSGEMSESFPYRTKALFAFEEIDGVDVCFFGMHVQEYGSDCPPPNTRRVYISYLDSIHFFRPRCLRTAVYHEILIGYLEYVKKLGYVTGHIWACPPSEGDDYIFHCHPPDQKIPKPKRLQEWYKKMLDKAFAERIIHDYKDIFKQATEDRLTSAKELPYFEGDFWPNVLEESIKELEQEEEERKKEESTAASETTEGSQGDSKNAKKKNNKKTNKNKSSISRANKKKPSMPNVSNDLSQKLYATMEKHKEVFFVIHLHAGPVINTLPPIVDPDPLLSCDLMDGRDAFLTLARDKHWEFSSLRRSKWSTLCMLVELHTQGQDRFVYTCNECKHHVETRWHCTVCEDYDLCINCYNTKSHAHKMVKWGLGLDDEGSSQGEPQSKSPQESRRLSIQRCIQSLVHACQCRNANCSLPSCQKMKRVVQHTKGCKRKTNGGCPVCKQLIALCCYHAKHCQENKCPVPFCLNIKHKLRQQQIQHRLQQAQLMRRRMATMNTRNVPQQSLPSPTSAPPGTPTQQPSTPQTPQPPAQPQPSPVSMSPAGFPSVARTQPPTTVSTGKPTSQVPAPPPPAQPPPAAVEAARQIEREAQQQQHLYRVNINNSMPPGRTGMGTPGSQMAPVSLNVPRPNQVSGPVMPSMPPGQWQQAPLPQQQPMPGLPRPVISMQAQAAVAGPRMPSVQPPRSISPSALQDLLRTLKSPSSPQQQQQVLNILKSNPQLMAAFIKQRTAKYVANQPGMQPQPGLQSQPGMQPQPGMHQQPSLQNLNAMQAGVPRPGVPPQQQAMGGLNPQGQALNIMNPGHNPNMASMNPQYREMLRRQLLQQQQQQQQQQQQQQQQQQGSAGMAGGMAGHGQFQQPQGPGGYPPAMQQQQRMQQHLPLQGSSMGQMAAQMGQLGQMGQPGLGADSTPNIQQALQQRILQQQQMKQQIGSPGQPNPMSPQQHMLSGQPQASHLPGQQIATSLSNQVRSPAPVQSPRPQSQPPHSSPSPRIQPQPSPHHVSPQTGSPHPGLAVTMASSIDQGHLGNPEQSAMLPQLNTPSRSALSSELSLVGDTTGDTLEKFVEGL
Procedure, shortened: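 VCaP cells in 5% charcoal-stripped FBS were cultured ≥3 days and then given bifunctional compound for 1.5 h. Lysates went onto AR-antibody-coated plates. Bound CBP (or p300) was detected with a rabbit antibody plus HRP anti-rabbit, using QuantaRed chemifluorescence (ex 570/em 585) read immediately, at 5 min and at 15 min.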

Row | IC50 (VCaP cells) [nM] | EC50 (AR / CBP ternary complex) [nM] | Compound
1 | 0.1 to 1 | < 1 | CC(=O)N1CCc2c(c(N3CCCc4cc(-c5cnn(C)c5)ncc43)nn2C2CCN(CC3CCN(c4ccc(C(=O)N[C@H]5CC[C@H](Oc6ccc(C#N)c(Cl)c6)CC5)nn4)CC3)CC2)C1 [Compound 66, rac-6-(4-((4-(5-acetyl-3-(6-(1-methyl-1H-pyrazol-4-yl)-3,4-dihydro-1,7-naphthyridin-1(2H)-yl)-4,5,6,7-tetrahydro-1H-pyrazolo[4,3-c]pyridin-1-yl)piperidin-1-yl)methyl)piperidin-1-yl)-N-((1r,4r)-4-(3-chloro-4-cyanophenoxy)cyclohexyl)pyridazine-3-carboxamide]
2 | 0.1 to 1 | < 1 | CC(=O)N1CCc2c(c(N3CCCc4cc(-c5cnn(C)c5)ncc43)nn2C2CCN(C(=O)C3CCN(c4ccc(C(=O)N[C@H]5CC[C@H](Oc6ccc(C#N)c(Cl)c6)CC5)nn4)CC3)CC2)C1 [Compound 67, 6-[4-[4-[5-acetyl-3-[6-(1-methylpyrazol-4-yl)-3,4-dihydro-2H-1,7-naphthyridin-1-yl]-6,7-dihydro-4H-pyrazolo[4,3-c]pyridin-1-yl]piperidine-1-carbonyl]-1-piperidyl]-N-[4-(3-chloro-4-cyano-phenoxy)cyclohexyl]pyridazine-3-carboxamide]
3 | ≤ 0.1 | < 1 | CC(=O)N1CCc2c(c(N3CCCc4cc(C#N)ncc43)nn2C2CCN(CC3CCN(c4ccc(C(=O)N[C@H]5CC[C@H](Oc6ccc(C#N)c(Cl)c6)CC5)nn4)CC3)CC2)C1 [Compound 68, 6-[4-[[4-[5-acetyl-3-(6-cyano-3,4-dihydro-2H-1,7-naphthyridin-1-yl)-6,7-dihydro-4H-pyrazolo[4,3-c]pyridin-1-yl]-1-piperidyl]methyl]-1-piperidyl]-N-[4-(3-chloro-4-cyano-phenoxy)cyclohexyl]pyridazine-3-carboxamide]
4 | ≤ 0.1 | < 1 | CC(=O)N1CCc2c(c(N3CCCc4cc(C#N)ncc43)nn2C2CCN(C(=O)C3CCN(c4ccc(C(=O)N[C@H]5CC[C@H](Oc6ccc(C#N)c(Cl)c6)CC5)nn4)CC3)CC2)C1 [Compound 69, 6-[4-[4-[5-acetyl-3-(6-cyano-3,4-dihydro-2H-1,7-naphthyridin-1-yl)-6,7-dihydro-4H-pyrazolo[4,3-c]pyridin-1-yl]piperidine-1-carbonyl]-1-piperidyl]-N-[4-(3-chloro-4-cyano-phenoxy)cyclohexyl]pyridazine-3-carboxamide]
5 | 0.1 to 1 | < 1 | CC(=O)N1CCc2c(c(N3CCCc4nc(-c5ccc(CCC6CCN(c7ccc(C(=O)N[C@H]8CC[C@H](Oc9ccc(C#N)c(Cl)c9)CC8)nn7)CC6)nc5)ncc43)nn2C2CCOCC2)C1 [Compound 72, 6-[4-[2-[5-[5-(5-acetyl-1-tetrahydropyran-4-yl-6,7-dihydro-4H-pyrazolo[4,3-c]pyridin-3-yl)-7,8-dihydro-6H-pyrido[3,2-d]pyrimidin-2-yl]-2-pyridyl]ethyl]-1-piperidyl]-N-[4-(3-chloro-4-cyano-phenoxy)cyclohexyl]pyridazine-3-carboxamide]
6 | 0.1 to 1 | 1 to 10 | CC(=O)N1CCc2c(c(N3CCCc4cc(C#N)ccc43)nn2[C@H]2C[C@H](CC3CCN(c4ccc(C(=O)N[C@H]5CC[C@H](Oc6ccc(C#N)c(Cl)c6)CC5)nn4)CC3)C2)C1 [Compound 77, 6-[4-[[3-[5-acetyl-3-(6-cyano-3,4-dihydro-2H-quinolin-1-yl)-6,7-dihydro-4H-pyrazolo[4,3-c]pyridin-1-yl]cyclobutyl]methyl]-1-piperidyl]-N-[4-(3-chloro-4-cyano-phenoxy)cyclohexyl]pyridazine-3-carboxamide]
7 | 0.1 to 1 | 1 to 10 | CC(=O)N1CCc2c(c(N3CCCc4cc(-c5cnn(C)c5)c(C(F)F)cc43)nn2C2CCN(CCC#Cc3ccc(C(=O)N[C@H]4CC[C@H](Oc5ccc(C#N)c(Cl)c5)CC4)nn3)CC2)C1 [Compound 94, 6-[4-[4-[5-acetyl-3-[7-(difluoromethyl)-6-(1-methylpyrazol-4-yl)-3,4-dihydro-2H-quinolin-1-yl]-6,7-dihydro-4H-pyrazolo[4,3-c]pyridin-1-yl]-1-piperidyl]but-1-ynyl]-N-[4-(3-chloro-4-cyano-phenoxy)cyclohexyl]pyridazine-3-carboxamide]
8 | 0.1 to 1 | < 1 | CC(=O)N1CCc2c(c(N3CCCc4cc(-c5cnn(C)c5)c(C(F)F)cc43)nn2C2CCN(CC3(C)CCN(c4ccc(C(=O)N[C@H]5CC[C@H](Oc6ccc(C#N)c(Cl)c6)CC5)nn4)CC3)CC2)C1 [Compound 100, 6-[4-[[4-[5-acetyl-3-[7-(difluoromethyl)-6-(1-methylpyrazol-4-yl)-3,4-dihydro-2H-quinolin-1-yl]-6,7-dihydro-4H-pyrazolo[4,3-c]pyridin-1-yl]-1-piperidyl]methyl]-4-methyl-1-piperidyl]-N-[4-(3-chloro-4-cyano-phenoxy)cyclohexyl]pyridazine-3-carboxamide]

The next lines start with the compound.

Row | Compound | IC50 (VCaP cells) [nM] | EC50 (AR / CBP ternary complex) [nM]
9 | CC(=O)N1CCc2c(c(-c3cccc4cc(-c5cnn(CCOC6CCN(c7ccc(C(=O)N[C@H]8CC[C@H](Oc9ccc(C#N)c(Cl)c9)CC8)nn7)CC6)c5)ncc34)nn2C)C1 [Compound 65, 6-[4-[2-[4-[8-(5-acetyl-1-methyl-6,7-dihydro-4H-pyrazolo[4,3-c]pyridin-3-yl)-3-isoquinolyl]pyrazol-1-yl]ethoxy]-1-piperidyl]-N-[4-(3-chloro-4-cyano-phenoxy)cyclohexyl]pyridazine-3-carboxamide] | ≤ 0.1 | < 1
10 | CC(=O)N1CCc2c(c(-c3cccc4nc(-c5cnn(CCC6CCN(c7ccc(C(=O)N[C@H]8CC[C@H](Oc9ccc(C#N)c(Cl)c9)CC8)nn7)CC6)c5)ncc34)nn2C2CCOCC2)C1 [Compound 70] | 0.1 to 1 | < 1
11 | CC(=O)N1CCc2c(c(-c3cccc4nc(-c5ccc(CCC6CCN(c7ccc(C(=O)N[C@H]8CC[C@H](Oc9ccc(C#N)c(Cl)c9)CC8)nn7)CC6)nc5)ncc34)nn2C2CCOCC2)C1 [Compound 73, 6-[4-[2-[5-[5-(5-acetyl-1-tetrahydropyran-4-yl-6,7-dihydro-4H-pyrazolo[4,3-c]pyridin-3-yl)quinazolin-2-yl]-2-pyridyl]ethyl]-1-piperidyl]-N-[4-(3-chloro-4-cyano-phenoxy)cyclohexyl]pyridazine-3-carboxamide] | ≤ 0.1 | < 1
12 | CC(=O)N1CCc2c(c(-c3cccc4cc(-c5cnn(CCC6CCN(c7ccc(C(=O)N[C@H]8CC[C@H](Oc9ccc(C#N)c(Cl)c9)CC8)nn7)CC6)c5)ncc34)nn2C2CC2)C1 [Compound 82] | 0.1 to 1 | < 1
13 | CC(=O)N1CCc2c(c(-c3cccc4cc(-c5cnn(CCC6CCN(c7ccc(C(=O)N[C@H]8CC[C@H](Oc9ccc(C#N)c(Cl)c9)CC8)nn7)CC6)c5)ncc34)nn2C2CCC2)C1 [Compound 83, 6-[4-[2-[4-[8-(5-acetyl-1-cyclobutyl-6,7-dihydro-4H-pyrazolo[4,3-c]pyridin-3-yl)-3-isoquinolyl]pyrazol-1-yl]ethyl]-1-piperidyl]-N-[4-(3-chloro-4-cyanophenoxy)cyclohexyl]pyridazine-3-carboxamide] | 0.1 to 1 | < 1
14 | CC(=O)N1CCc2c(c(-c3cccc4cc(-c5cnn(CCC6CCN(c7ccc(C(=O)N[C@H]8CC[C@H](Oc9ccc(C#N)c(Cl)c9)CC8)nn7)CC6)c5)ncc34)nn2C2COC2)C1 [Compound 84, 6-[4-[2-[4-[8-[5-acetyl-1-(oxetan-3-yl)-6,7-dihydro-4H-pyrazolo[4,3-c]pyridin-3-yl]-3-isoquinolyl]pyrazol-1-yl]ethyl]-1-piperidyl]-N-[4-(3-chloro-4-cyano-phenoxy)cyclohexyl]pyridazine-3-carboxamide] | 0.1 to 1 | < 1
15 | CC(=O)N1CCc2c(c(-c3cccc4cc(-c5cnn(CCC6CCN(c7ccc(C(=O)N[C@H]8CC[C@H](Oc9ccc(C#N)c(Cl)c9)CC8)nn7)CC6)c5)ncc34)nn2[C@H]2CCOC2)C1 [Compound 85, 6-[4-[2-[4-[8-[5-acetyl-1-[(3S)-tetrahydrofuran-3-yl]-6,7-dihydro-4H-pyrazolo[4,3-c]pyridin-3-yl]-3-isoquinolyl]pyrazol-1-yl]ethyl]-1-piperidyl]-N-[4-(3-chloro-4-cyano-phenoxy)cyclohexyl] pyridazine-3-carboxamide] | ≤ 0.1 | < 1
16 | C[C@@H]1CC(=O)Nc2cc(C3CCN(CC4CCN(c5ccc(C(=O)N[C@H]6CC[C@H](Oc7ccc(C#N)c(Cl)c7)CC6)nn5)CC4)CC3)cc(-c3ccc4c(c3)c(-c3cnn(C)c3)nn4C)c2N1 [Compound 87, N-[4-(3-chloro-4-cyano-phenoxy)cyclohexyl]-6-[4-[[4-[(4R)-4-methyl-6-[1-methyl-3-(1-methylpyrazol-4-yl)indazol-5-yl]-2-oxo-1,3,4,5-tetrahydro-1,5-benzodiazepin-8-yl]-1-piperidyl]methyl]-1-piperidyl]pyridazine-3-carboxamide] | ≤ 0.1 | < 1
17 | C[C@@H]1CC(=O)Nc2cc(C3CCN(CC4CCN(c5ccc(C(=O)N[C@H]6CC[C@H](Oc7ccc(C#N)c(Cl)c7)CC6)nn5)CC4)CC3)cc(-c3ccc4c(c3)c(C3CC3)nn4C)c2N1 [Compound 88, N-[4-(3-chloro-4-cyano-phenoxy)cyclohexyl]-6-[4-[[4-[(4R)-6-(3-cyclopropyl-1-methyl-indazol-5-yl)-4-methyl-2-oxo-1,3,4,5-tetrahydro-1,5-benzodiazepin-8-yl]-1-piperidyl]methyl]-1-piperidyl]pyridazine-3-carboxamide] | 0.1 to 1 | 1 to 10
18 | C[C@@H]1CC(=O)Nc2cc(C3CCN(CC4CCN(c5ccc(C(=O)N[C@H]6CC[C@H](Oc7ccc(C#N)c(Cl)c7)CC6)nn5)CC4)CC3)cc(-c3ccc4c(cnn4C)c3)c2N1 [Compound 89] | ≤ 0.1 | < 1
